Experimental data published in US10526314B2, “Hydroxyalkyl-substituted heteroaryltriazole derivatives and uses thereof” (BAYER AKTIENGESELLSCHAFT, priority 2016, dated 2020).

Tests used:
[1] = target: T1, human V1a receptor (Homo sapiens, UniProt P37288); test: Cellular in vitro assay for determining vasopressin receptor activity (V1a, aequorin luminescence); assay type: cell-based; details: for IC50: CHO cell line transfected with human V1a receptor, [Arg8]-vasopressin at EC50 concentration, read-out: IC50 hV1a; for ratio IC50 hV2/hV1a: selectivity ratio IC50 hV2 / IC50 hV1a
T1 construct: expressed in transfected cells; host or cells: CHO K1 (ATCC), also stably transfected with a modified aequorin
Experimental: (§1) B-1. Cellular In Vitro Assay for Determining Vasopressin Receptor Activity
(§2) The identification of agonists and antagonists of the V1a and V2 vasopressin receptors from humans, rats and dogs as well as the quantification of the activity of the compounds of the invention is carried out using recombinant cell lines. These cell lines originally derive from a hamster's ovary epithelial cell (Chinese Hamster Ovary, CHO K1, ATCC: American Type Culture Collection, Manassas, Va. 20108, USA). The test cell lines constitutively express the human, rat or dog V1a or V2 receptors. In case of the Gαq-coupled V1a receptors, cells are also stably transfected with a modified form of the calcium-sensitive photoproteins aequorin (human and rat V1a) or obelin (dog V1a), which, after reconstitution with the cofactor coelenterazine, emit light when there are increases in free calcium concentrations [Rizzuto R, Simpson A W, Brini M, Pozzan T, Nature 358, 325-327 (1992); Illarionov B A, Bondar V S, Illarionova V A, Vysotski E S, Gene 153 (2), 273-274 (1995)]. The resulting vasopressin receptor cells react to stimulation of the recombinantly expressed V1a receptors by intracellular release of calcium ions, which can be quantified by the resulting photoprotein luminescence. The Gs-coupled V2 receptors are stably transfected into cell lines expressing the gene for firefly luciferase under control of a CRE-responsible promoter. Activation of V2 receptors induces the activation of the CRE-responsive promoter via cAMP increase, thereby inducing the expression of firefly luciferase. The light emitted by photoproteins of V1a cell lines as well as the light emitted by firefly luciferase of V2 cell lines corresponds to the activation or inhibition of the respective vasopressin receptor. The bioluminescence of the cell lines is detected using a suitable luminometer [Milligan G, Marshall F, Rees S, Trends in Pharmacological Sciences 17, 235-237 (1996)].
Vasopressin V1a Receptor Cell Lines:
On the day before the assay, the cells are plated out in culture medium (DMEM/F12, 2% FCS, 2 mM glutamine, 10 mM HEPES, 5 μg/ml coelenterazine) in 384-well microtiter plates and kept in a cell incubator (96% humidity, 5% v/v CO2, 37° C.). On the day of the assay, test compounds in various concentrations are placed for 10 minutes in the wells of the microtiter plate before the agonist [Arg^8]-vasopressin at EC50 concentration is added. The resulting light signal is measured immediately in a luminometer.
(§3) Table 1A below lists individual IC50 values for the compounds of the invention (including racemic mixtures as well as separated enantiomers) that were obtained from cell lines transfected with the human V1a or V2 receptor: […]

[2] = target: T2, human V2 receptor (Homo sapiens, UniProt P30518); test: Cellular in vitro assay for determining vasopressin receptor activity (V2, CRE-luciferase); assay type: cell-based; details: CHO cell line transfected with human V2 receptor; [Arg8]-vasopressin at EC50 concentration; read-out: IC50 hV2
T2 construct: expressed in transfected cells; host or cells: CHO K1 (ATCC) expressing firefly luciferase under a CRE-responsive promoter
Experimental: as §1, §2
Vasopressin V2 Receptor Cell Lines:
On the day before the assay, the cells are plated out in culture medium (DMEM/F12, 2% FCS, 2 mM glutamine, 10 mM HEPES) in 384-well microtiter plates and kept in a cell incubator (96% humidity, 5% v/v CO2, 37° C.). On the day of the assay, test compounds in various concentrations and the agonist [Arg^8]-vasopressin at EC50 concentration are added together to the wells, and plates are incubated for 3 hours in a cell incubator. Upon addition of the cell lysis reagent Triton™ and the substrate luciferin, luminescence of firefly luciferase is measured in a luminometer.
as §3

T1 sequence (P37288 whole entry): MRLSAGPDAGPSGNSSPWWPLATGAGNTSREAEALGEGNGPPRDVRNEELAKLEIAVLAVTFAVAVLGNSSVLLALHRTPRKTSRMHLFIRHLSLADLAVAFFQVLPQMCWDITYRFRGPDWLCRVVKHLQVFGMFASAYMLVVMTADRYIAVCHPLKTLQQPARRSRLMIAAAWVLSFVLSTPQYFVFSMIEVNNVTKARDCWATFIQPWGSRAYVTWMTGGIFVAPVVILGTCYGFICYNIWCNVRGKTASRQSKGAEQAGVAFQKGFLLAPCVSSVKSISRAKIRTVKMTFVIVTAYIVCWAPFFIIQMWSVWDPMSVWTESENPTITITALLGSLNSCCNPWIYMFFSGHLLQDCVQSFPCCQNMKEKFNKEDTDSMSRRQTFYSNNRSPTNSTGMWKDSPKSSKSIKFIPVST
T2 sequence (P30518 whole entry): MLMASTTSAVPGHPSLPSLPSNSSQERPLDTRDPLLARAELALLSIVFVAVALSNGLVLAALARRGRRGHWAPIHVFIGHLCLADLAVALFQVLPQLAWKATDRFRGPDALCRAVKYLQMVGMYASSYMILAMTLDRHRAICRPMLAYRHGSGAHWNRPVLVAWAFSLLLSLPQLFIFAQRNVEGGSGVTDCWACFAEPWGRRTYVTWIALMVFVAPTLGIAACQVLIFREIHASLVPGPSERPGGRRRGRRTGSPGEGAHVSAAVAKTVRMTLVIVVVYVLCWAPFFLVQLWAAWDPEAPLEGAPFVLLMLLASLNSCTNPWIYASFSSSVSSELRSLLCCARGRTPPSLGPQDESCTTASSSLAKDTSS

| Compound | IC50 [1] | ratio IC50 hV2/hV1a [1] | IC50 [2] |
| --- | --- | --- | --- |
| C[C@H](O)c1nc(Cn2nc(-c3ccc(Cl)cc3)n(C[C@H](O)C(F)(F)F)c2=O)nn1-c1cccc(F)n1 [Example 17, 5-(4-Chlorophenyl)-2-({1-(6-fluoropyridin-2-yl)-5-[(1S)-1-hydroxyethyl]-1H-1,2,4-triazol-3-yl}methyl)-4-[(2S)-3,3,3-trifluoro-2-hydroxypropyl]-2,4-dihydro-3H-1,2,4-triazol-3-one] | 14.5 nM | 2.7 | 39.5 nM |
| C[C@@H](O)c1nc(Cn2nc(-c3ccc(Cl)cc3)n(C[C@H](O)C(F)(F)F)c2=O)nn1-c1ncccc1F [Example 13, 5-(4-Chlorophenyl)-2-({1-(3-fluoropyridin-2-yl)-5-[(1R)-1-hydroxyethyl]-1H-1,2,4-triazol-3-yl}methyl)-4-[(2S)-3,3,3-trifluoro-2-hydroxypropyl]-2,4-dihydro-3H-1,2,4-triazol-3-one] | 6.05 nM | 6.4 | 38.7 nM |
| COc1cccnc1-n1nc(Cn2nc(-c3ccc(Cl)cc3)n(C[C@H](O)C(F)(F)F)c2=O)nc1[C@H](C)O [Example 8, 5-(4-Chlorophenyl)-2-({5-[(1S)-1-hydroxyethyl]-1-(3-methoxypyridin-2-yl)-1H-1,2,4-triazol-3-yl}methyl)-4-[(2S)-3,3,3-trifluoro-2-hydroxypropyl]-2,4-dihydro-3H-1,2,4-triazol-3-one] | 3.65 nM | 2.6 | 9.4 nM |
| C[C@@H](O)c1nc(Cn2nc(-c3ccc(Cl)cc3)n(C[C@H](O)C(F)(F)F)c2=O)nn1-c1ncccc1C(F)(F)F [Example 31, 5-(4-chlorophenyl)-2-({5-[(1R)-1-hydroxyethyl]-1-[3-(trifluoromethyl)pyridin-2-yl]-1H-1,2,4-triazol-3yl}methyl)-4-[(2S)-3,3,3-trifluoro-2-hydroxypropyl]-2,4-dihydro-3H-1,2,4-triazol-3-one] | 4.9 nM | 35.1 | 170 nM |
| COc1nccnc1-n1nc(Cn2nc(-c3ccc(Cl)cc3)n(C[C@H](O)C(F)(F)F)c2=O)nc1[C@H](C)O [Example 21, 5-(4-Chlorophenyl)-2-({5-[(1S)-1-hydroxyethyl]-1-(3-methoxypyrazin-2-yl)-1H-1,2,4-triazol-3-yl}methyl)-4-[(2S)-3,3,3-trifluoro-2-hydroxypropyl]-2,4-dihydro-3H-1,2,4-triazol-3-one] | 49 nM | 0.9 | 46 nM |
| C[C@@H](O)c1nc(Cn2nc(-c3ccc(Cl)cc3)n(C[C@H](O)C(F)(F)F)c2=O)nn1-c1ncccc1OC(F)(F)F [Example 16, 5-(4-Chlorophenyl)-2-({5[(1R)-1hydroxyethyl]-1-[3-(trifluoromethoxy)pyridin-2-yl]-1H-1,2,4-triazol-3yl}methyl)-4-[(2S)-3,3,3-trifluoro-2-hydroxypropyl]-2,4-dihydro-3H-1,2,4-triazol-3-one] | 13 nM | 29.7 | 387 nM |

Second part, the molecule after the results:

| IC50 [1] | ratio IC50 hV2/hV1a [1] | IC50 [2] | Compound |
| --- | --- | --- | --- |
| 0.49 nM | 32.6 | 16 nM | C[C@@H](O)c1nc(Cn2nc(-c3ccc(Cl)cc3)n(C[C@H](O)C(F)(F)F)c2=O)nn1-c1cnccc1Cl [Example 1, 5-(4-Chlorophenyl)-2-({1-(4-chloropyridin-3-yl)-5-[(1R)-1-hydroxyethyl]-1H-1,2,4-triazol-3-yl}methyl)-4-[(2S)-3,3,3-trifluoro-2-hydroxypropyl]-2,4-dihydro-3H-1,2,4-triazol-3-one] |
| 3 nM | 5.3 | 16 nM | C[C@H](O)c1nc(Cn2nc(-c3ccc(Cl)cc3)n(C[C@H](O)C(F)(F)F)c2=O)nn1-c1ccncc1Cl [Example 7, 5-(4-Chlorophenyl)-2-({1-(3-chloropyridin-4-yl)-5-[(1S)-1-hydroxyethyl]-1H-1,2,4-triazol-3-yl}methyl)-4-[(2S)-3,3,3-trifluoro-2-hydroxypropyl]-2,4-dihydro-3H-1,2,4-triazol-3-one] |
| 34.3 nM | 9.5 | 325 nM | CC(O)c1nc(Cn2nc(-c3ccc(Cl)cc3)n(C[C@H](O)C(F)(F)F)c2=O)nn1-c1cccnc1 (single isomer, unassigned) [Example 26] |
| 47.6 nM | 4.9 | 235 nM | C[C@H](O)c1nc(Cn2nc(-c3ccc(Cl)cc3)n(C[C@H](O)C(F)(F)F)c2=O)nn1-c1cccnn1 [Example 20, 5-(4-Chlorophenyl)-2-({5-[(1S)-1-hydroxyethyl]-1-(pyridazin-3-yl)-1H-1,2,4-triazol-3-yl}methyl)-4-[(25)-3,3,3-trifluoro-2-hydroxypropyl]-2,4-dihydro-3H-1,2,4-triazol-3-one] |
| 29.5 nM | 10.8 | 320 nM | C[C@H](O)c1nc(Cn2nc(-c3ccc(Cl)cc3)n(C[C@H](O)C(F)(F)F)c2=O)nn1-c1cnccn1 [Example 19, 5-(4-Chlorophenyl)-2-({5-[(1S)-1-hydroxyethyl]-1-(pyrazin-2-yl)-1H-1,2,4-triazol-3-yl}methyl)-4-[(2S)-3,3,3-trifluoro-2-hydroxypropyl]-2,4-dihydro-3H-1,2,4-triazol-3-one] |
| 0.57 nM | 14.2 | 8.07 nM | C[C@H](O)c1nc(Cn2nc(-c3ccc(Cl)cc3)n(C[C@H](O)C(F)(F)F)c2=O)nn1-c1ncccc1Cl [Example 3, 5-(4-Chlorophenyl)-2-({1-(3-chloropyridin-2-yl)-5-[(1S)-1-hydroxyethyl]-1H-1,2,4-triazol-3-yl}methyl)-4-[(2S)-3,3,3-trifluoro-2-hydroxypropyl]-2,4-dihydro-3H-1,2,4-triazol-3-one] |
| 5.6 nM | 4.1 | 22.7 nM | C[C@H](O)c1nc(Cn2nc(-c3ccc(Cl)cc3)n(C[C@H](O)C(F)(F)F)c2=O)nn1-c1ncccc1F [Example 11, 5-(4-Chlorophenyl)-2-({1-(3-fluoropyridin-2-yl)-5-[(1S)-1-hydroxyethyl]-1H-1,2,4-triazol-3-yl}methyl)-4-[(2S)-3,3,3-trifluoro-2-hydroxypropyl]-2,4-dihydro-3H-1,2,4-triazol-3-one] |
| 49.1 nM | 15.8 | 773 nM | CC(O)c1nc(Cn2nc(-c3ccc(Cl)cc3)n(C[C@H](O)C(F)(F)F)c2=O)nn1-c1cccnc1 (mixture of isomers) [Example 24] |
